The numbers were not newly measured in US20240139105A1, “PHARMACEUTICAL COMPOSITION CONTAINING GHRP-6” (CENTRO DE INGENIERÍA GENÉTICA Y BIOTECNOLOGÍA, priority 2021, published 2024), which cites them from elsewhere.

One data set relates to humans. Particulars: intravenous route.
Another data set relates to pigs. Conditions: model of acute myocardial infarction in pigs.
Data set [1] relates to Mongolia gerbil (Meriones unguiculatus). Particulars: model of ischemic cerebral infarction, in combination with EGF.

Where no end group is shown, it is not given here. [ ]: non-standard residue; d: D form.

Take “His-Trp-Ala-Trp-Phe-Lys-NH2 (H[dW]AW[dF]K-NH2) [GHRP-6, synthetic peptide, growth hormone secretagogue; the API of all formulations]”: the “Doses referred as safe in humans” value in the data set with humans was no more than 2 µg/kg. Besides, the Therapeutic dosage reported was 400 µg/kg in the data set with pigs and “around 600 μg/kg” in data set [1].
